Laboratory results reported in patent US6794416B2, “Methods, compositions and modes of delivery for the treatment of emphysema using 13-cis-retinoic acid” (Syntex (U.S.A.) LLC, priority 2000, dated 2004).
Like-named read-outs stand apart in the source and are kept apart here. Marks after values point to notes of the source that are not given here.

Columns and labels:
[1] = tested on: rat model of elastase-induced emphysema; experiment: alveolar repair in the rat model of elastase-induced emphysema; type: in vivo, male Sprague Dawley rats; conditions: for % Alveolar Repair: starting 21 days post elastase injury, relative to elastase + vehicle
Procedure: All-trans retinoic acid (ATRA) and 13-cis-retinoic acid were evaluated for their effects on alveolar repair in the rat model of elastase-induced emphysema (Massaro et al., Nature, 1997, Vol. 3, No. 6:675; Massaro et al., U.S. Pat. No. 5,998,486). Animals were divided into treatment groups of approximately eight. Lung inflammation and alveolar damage was induced in male Sprague Dawley rats by a single instillation of about 2 U/gram body mass of pancreatic elastase (porcine derived, Calbiochem).
(§1) Animals treated with ATRA and 13-cis-retinoic acid prepared in Capmul at the dosage ranges enumerated in Table 6 were dosed orally once per day starting 21 days post injury. Control groups were challenged with elastase and 21 days later were treated with vehicle (Capmul solution) for 14 days. Animals were sacrificed 24 hours after the last dose by exsanguination under deep anesthesia. Blood was collected at time of exsanguination for analysis.
The lungs were inflated with 10% neutral buffered formalin by intratracheal instillation at a constant rate (1 ml/gram body mass/min). The lung was excised and immersed in fixative for 24 hours prior to processing. Alveolar measurements were made in four regions of the lung/rat. The mean value/treatment group was determined by summing the average area/rat for all eight rats relative to the elastase+ vehicle treated group. […] Standard methods were used to prepare 5 μm paraffin sections. Sections were stained with Hematoxylin and Eosin. Computerized Morphometric analysis was performed to determine the average alveolar size and alveolar number.

[2] = design: species or system male Sprague Dawley rats; conditions: rat, in vivo, po
Procedure: as §1
Quantitation of triglycerides contained in rat plasma was performed using established procedures in a contact clinical laboratory facility. Briefly, plasma triglycerides were converted to dihdroxyacetone and hydrogen peroxide by sequential treatment of plasma with lipase and glycerokinase according directions described by the manufacturer of triglycerides/GPO kit (Boehringer Mannheim #1488872). Hydrogen peroxide was quantitated colorimetrically in a Hitachi 911 Chemistry Analyzer. In rats normal triglyceride levels are between about 75 mg/dl and about 175 mg/dl.
Triglyceride values are a convenient measure of toxicity. […] Furthermore, at every dosage level tested, the triglyceride levels observed with 13-cis-retinoic acid were lower than that observed for ATRA.

[3] = oral dose 0.1 mg/kg once per day
[4] = oral dose 1.0 mg/kg once per day
[5] = oral dose 10.0 mg/kg once per day

CC1=C(/C=C/C(C)=C/C=C/C(C)=C/C(=O)O)C(C)(C)CCC1 [ATRA, All-trans retinoic acid]
statistical significance of alveolar repair relative to elastase treated control ([1]; dosages below 0.3 mg/kg): not statistically significant | % Alveolar Repair [1, 3]: 8.8* % | % Alveolar Repair ([1]; oral dose 0.3 mg/kg once per day): 30* % | % Alveolar Repair [1, 4]: 45% | % Alveolar Repair ([1]; oral dose 3.0 mg/kg once per day): 47% | % Alveolar Repair [1, 5]: 53% | Triglyceride ([2]; 0.1 mg/kg): 152 mg/dL | Triglyceride ([2]; 0.3 mg/kg): 149 mg/dL | Triglyceride ([2]; 1 mg/kg): 175 mg/dL | Triglyceride ([2]; 3 mg/kg): 307 mg/dL | Triglyceride ([2]; 10 mg/kg): 378 mg/dL

CC1=C(/C=C/C(C)=C/C=C/C(C)=C\C(=O)O)C(C)(C)CCC1 [13-cis-retinoic acid, (13Z)-retinoic acid]
statistical significance of alveolar repair relative to elastase treated control ([1]; dosage of 0.001 mg/kg): statistically insignificant | statistical significance of alveolar repair relative to elastase treated control ([1]; dosage range from 10.0 mg/kg to as low as 0.01 mg/kg): statistically significant | % Alveolar Repair ([1]; oral dose 0.001 mg/kg once per day): 12* % | % Alveolar Repair ([1]; oral dose 0.01 mg/kg once per day): 38% | % Alveolar Repair [1, 3]: 30% | % Alveolar Repair [1, 4]: 45% | % Alveolar Repair [1, 5]: 56% | Triglyceride ([2]; 0.001 mg/kg): 125 mg/dL | Triglyceride ([2]; 0.01 mg/kg): 73 mg/dL | Triglyceride ([2]; 0.1 mg/kg): 82 mg/dL | Triglyceride ([2]; 1 mg/kg): 128 mg/dL | Triglyceride ([2]; 10 mg/kg): 147 mg/dL
